Experimental data reported in patent US20150175556A1, “DIHYDROPYRIMIDIN-2(1H)-ONES AND DIHYDROPYRIMIDIN-2(1H)-THIONES AS INHIBITORS OF SODIUM IODIDE SYMPORTER” (COMMISSARIAT A L'ENERGIE ATOMIQUE ET AUX ENERGIES …, priority 2012, published 2015).
pIC50: −log10 of the molar value.

What was measured:
[1] = biological target: T1, sodium iodide symporter (NIS), iodide transport in FRTL5 cells (Rattus norvegicus, UniProt Q63008); details: F. Waltz et al., Anal. Biochem., 2010; read-out: IC50, competitive inhibition of iodide transport in FRTL5 cells; cited from earlier work
T1 construct: host or cells: FRTL5 (rat thyroid-derived cells), endogenous NIS
T1 sequence (Q63008 1-618): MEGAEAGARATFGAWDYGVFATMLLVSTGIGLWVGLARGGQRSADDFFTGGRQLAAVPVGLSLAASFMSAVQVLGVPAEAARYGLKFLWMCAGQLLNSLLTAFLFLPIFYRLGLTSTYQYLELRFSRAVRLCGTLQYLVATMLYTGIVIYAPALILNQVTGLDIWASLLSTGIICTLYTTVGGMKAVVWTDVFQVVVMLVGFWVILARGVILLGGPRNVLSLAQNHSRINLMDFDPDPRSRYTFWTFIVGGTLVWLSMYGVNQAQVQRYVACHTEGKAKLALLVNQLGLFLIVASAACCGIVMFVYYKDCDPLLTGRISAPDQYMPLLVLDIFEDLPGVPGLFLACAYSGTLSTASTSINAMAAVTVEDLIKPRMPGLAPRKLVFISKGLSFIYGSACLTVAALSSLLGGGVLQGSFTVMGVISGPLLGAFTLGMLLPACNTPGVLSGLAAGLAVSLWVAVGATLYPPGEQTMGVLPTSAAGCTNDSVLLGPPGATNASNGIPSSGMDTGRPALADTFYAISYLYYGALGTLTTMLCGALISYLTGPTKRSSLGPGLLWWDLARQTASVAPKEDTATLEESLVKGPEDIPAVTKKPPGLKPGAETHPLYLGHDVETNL

[2] = biological target: T2, iodide transport in rat thyroid-derived cell lines (FRTL5) (Rattus norvegicus, UniProt Q63008); details: reported in literature (N. Lecat-Guillet et al., 2008); read-out: IC50, iodide uptake in FRTL5 cells; cited from earlier work
T2 construct: host or cells: FRTL5 (rat thyroid-derived cells), endogenous NIS
T2 sequence (Q63008 1-618): T1 sequence (Q63008 1-618)

[3] = concentration up to 200 μM; cited from earlier work
hNIS-HEK293 cells = biological target: T3, hNIS-HEK293 cells (Homo sapiens, UniProt Q92911); details: cited from earlier work
T3 construct: host or cells: HEK293 stably expressing human NIS
T3 sequence (Q92911 1-643): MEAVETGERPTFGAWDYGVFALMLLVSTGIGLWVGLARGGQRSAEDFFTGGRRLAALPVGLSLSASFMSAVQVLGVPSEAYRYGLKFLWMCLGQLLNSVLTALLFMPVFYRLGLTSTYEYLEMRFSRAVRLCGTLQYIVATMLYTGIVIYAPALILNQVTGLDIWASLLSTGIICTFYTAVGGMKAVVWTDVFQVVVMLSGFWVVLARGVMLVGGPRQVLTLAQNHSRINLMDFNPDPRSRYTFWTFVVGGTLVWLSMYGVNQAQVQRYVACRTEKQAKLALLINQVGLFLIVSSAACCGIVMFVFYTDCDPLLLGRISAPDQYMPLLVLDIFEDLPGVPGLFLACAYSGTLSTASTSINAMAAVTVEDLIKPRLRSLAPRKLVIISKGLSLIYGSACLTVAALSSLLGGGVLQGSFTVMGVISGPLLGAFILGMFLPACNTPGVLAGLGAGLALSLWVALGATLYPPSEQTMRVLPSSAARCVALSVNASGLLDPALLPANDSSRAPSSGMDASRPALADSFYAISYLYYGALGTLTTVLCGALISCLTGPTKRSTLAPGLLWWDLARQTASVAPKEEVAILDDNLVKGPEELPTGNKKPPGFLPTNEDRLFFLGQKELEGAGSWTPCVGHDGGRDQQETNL

[4] = biological target: T4, sodium iodide symporter (NIS), iodide uptake in FRTL5 cells (Rattus norvegicus, UniProt Q63008); test: Inhibition of iodide uptake in FRTL5 cells, non radioactive arsenic/cerium assay; format: cell-based; details: Table 5, variations at Y, R1, R3, R4, R5; averaged from two to four independent experiments; NaI 10 μM, 1 hour, 20°C; read-out: IC50 (μM), inhibitory activity against iodide uptake in FRTL5 cells
T4 construct: endogenous in cells; host or cells: FRTL5 (rat thyroid-derived cells)
T4 sequence (Q63008 1-618): T1 sequence (Q63008 1-618)
Method: Some of the synthesized compounds were evaluated for their ability to inhibit iodide entrapment in FRTL5 cells. The IC50 values were measured in at least […] independent experiments.
The biological activity of each compound was determined in FRTL5 cells, using a non radioactive arsenic/cerium assay as described in F. Waltz et al., Anal. Biochem., 2012, 396, 91-95. Compound potency was expressed as IC50, the concentration of compound necessary to achieve 50% inhibition of iodide uptake. Briefly, to FRTL5 cells at 70-90% confluence was added compound (200 μM, 10 μM, 0.5 μM, 25 nM, 1.2 nM, 60 pM, […], and 0.15 pM final), followed by NaI (10 μM final). After 1 hour incubation at 20±1° C., supernatant was removed and the cells were immediately assayed for iodide content using the modified As/Ce Sandell-Kolthoff reaction. NaClO4 was tested in each microplate as assay controls. The IC50 values of all compounds were measured least thrice independently.
Stock solutions of tested compounds were prepared in DMSO (20 mM) and that of NaClO4 in water (20 mM). These stock solutions were stored at 4° C. for up to 2 months. Sample dilutions: the day of the assay, a daughter plate (clear flat-bottomed 96-well polystyrene microplates, Costar 9017) was prepared from 20 mM stock solutions. NaClO4 (column 2) and DHPM samples (columns 4 to 11) were diluted at 10× the final concentration in uptake buffer.
FRTL5 cells were cultured as described in F. S. Ambesi-Impiombato et al., Proc. Natl. Acad. Sci. USA, 1980, 77, 3455-3459. Briefly, FRTL5 cells were cultured in Coon's modified F12 medium supplemented with 5% heat-inactivated fetal bovine serum (Invitrogen), 2 mM L-glutamine, 100 U/mL penicillin, 0.1 mg/mL streptomycin, 10 μg/mL insulin, 10 nM hydrocortisone, 10 ng/mL Gly-His-Lys acetate, 1 mU/mL TSH, 5 μg/mL transferrin at 37° C. and 5% CO2. For iodide uptake assays, 200 μL of FRTL5 cells with density of 250,000 cells/mL were dispensed in each well of clear flat-bottomed 96-well polystyrene microplates (Costar 3628) using the Multidrop 384 (ThermoFisher Scientific), and further cultured until confluence reached 80-90% (3-4 days).
The culture medium of FRTL5 monolayer cells at 80-90% confluence was replaced by uptake buffer (20° C.) via continuous aspiration/dispense cycle (600 μL) using a 96-needle head plate washer PW 384 (Tecan). The 96-needle head was set to a vertical position such that 80 μL of fresh uptake buffer remained in each well at the end of the cycle. The samples (10 μL each) from the daughter plate were transferred all at once to the assay plate using the 96-tip head pipettor Liquidator 96 (Mettler Toledo). Immediately after, 10 μL of a NaI solution at 100 μM was added to each well of the assay plate using the Liquidator 96. The assay plate was left to stand in the dark at 20±1° C. for 60 min. The assay plate was then washed with cold (4° C.) uptake buffer using the PW 384 plate washer and residual supernatant was immediately discarded by inverting the assay plate on absorbent paper.
Sodium iodide standards (S1 to S7) and water (S0) were distributed in duplicate (100 μL each) in the first and last column of the assay plate. Water (100 μL) was added to the columns with the Multidrop 384. 100 μL of the ammonium cerium (IV) sulfate solution (10.5 mM) was distributed into the columns, followed by 100 μL of the sodium arsenite (III) solution (24 mM) using the Multidrop 384. The assay plate was left to stand at 20±1° C. for 30 min. The absorbance at 420 nm (Abs420) was immediately recorded on a SpectraMax Plus 384 (Molecular Devices). A calibration curve was prepared for each plate by plotting the logarithmic conversion of the means of Abs420 (n=2) vs iodide standard concentrations (S0 to S7). The iodide concentrations in the samples were determined after linear regression of the calibration curve.

Row | melting point | SMILES | pIC50 [1] | also measured
1 |  | [O-][Cl+3]([O-])([O-])O [ClO4^−] | 6.85 | 
2 |  | F[B-](F)(F)F [BE4^−] | 6.12 | 
3 |  | F[B-](F)(F)c1ccc(OCc2ccccc2)cc1 [ITB11] |  | pIC50 [2]: 6.40
4 |  | F[P-](F)(F)(F)(F)F [PF6^−] | 8.05 | 
5 |  | O=[N+]([O-])O [NO3^−] | 3.60 | 
6 | 162 to 164 °C | COc1ccc(COC(=O)C2=C(C)NC(=O)NC2c2ccccc2)cc1 (stereo not drawn) [Compound 1, 4-methoxybenzyl 6-methyl-2-oxo-4-phenyl-1,2,3,4-tetrahydropyrimidine-5-carboxylate] |  | Cytotoxicity [3]: not found cytotoxic; Efflux of iodide from preloaded hNIS-HEK293 cells (hNIS-HEK293 cells): can trigger a rapid efflux of iodide
7 | 141 to 143 °C | CC1=C(C(=O)OCc2ccc3c(c2)OCO3)C(c2ccco2)NC(=O)N1C (stereo not drawn) [Compound 60, Benzo[d][1,3]dioxol-5-ylmethyl 4-(furan-2-yl)-1,6-dimethyl-2-oxo-1,2,3,4-tetrahydropyrimidine-5-carboxylate] |  | IC50 [4]: 0.073 µM
8 | 122 to 124 °C | COc1ccc(COC(=O)C2=C(C)N(C)C(=O)N(C)C2c2ccco2)cc1OC (stereo not drawn) [Compound 58, 3,4-Dimethoxybenzyl 4-(furan-2-yl)-1,3,6-trimethyl-2-oxo-1,2,3,4-tetrahydropyrimidine-5-carboxylate] |  | IC50 [4]: 0.065 µM
